# Measurements reported in patent publication US5623080A, “Fluorone and pyronin Y derivatives” (Spectra Group Limited, Inc., priority 1995, dated 1997).
# Legend:
# [1] = double bond conversion (C=C% Conversion) by FTIR
# Procedure: (§1) To a resin formulation consisting of 15 parts urethane diacrylate, 15 parts DPHPA, 20 parts TPGDA and 40 parts TMPTA was added DIDMA, initiator and (4-octyloxyphenyl)phenyliodonium hexafluoroantimonate (OPPI). The samples were coated to a thickness of 15 microns and exposed to a 75 W tungsten halogen dental lamp (focused through an optical fiber) at a distance of 0.75 inch at which the Light intensity was about 0.40 W/cm^2. The molar ratios are indicative of the amounts of fluorone to onium salt to amine coinitiator. The double bond conversion was determined by FTIR spectroscopy. The pencil hardness of a given test sample is measured by holding a pencil at a 45° angle to the sample and drawing across it towards the person testing it. Using the pencils in an order from softest to hardest, the first pencil that scratches the surface is assigned as the pencil hardness of the sample. The pencil hardness scale is as follows from softest to hardest: 4B, 3B, 2B, B, HB, H, 2H, 3H, 4H, 6H. For instance, if a 2H pencil is the first pencil to scratch the surface then the pencil hardness is 2H.
# [2] = double bond conversion (C=C% Conversion) by FTIR; conditions: DIDMA
# Procedure: as §1
# The foregoing study was repeated using 100% butanediol diacrylate, and 100% polyethylene glycol diacrylate (MW=400)(PEGA 400).
structure (smiles),measurement,setting,value
"CCCCOc1ccc2cc3cc(I)c(=O)c(I)c-3oc2c1 [DIBF, 5,7-diiodo-3-butoxy-6-fluorone]",C=C% Conversion,"[1]; 0.05 wt %, (1:0:60), DIDMA, 30 sec",37%
same,C=C% Conversion,"[1]; 0.05 wt %, (1:1:60), DIDMA, 30 sec",37%
same,C=C% Conversion,"[1]; 0.05 wt %, (1:2:0), DIDMA, 30 sec",5%
same,C=C% Conversion,"[1]; 0.05 wt %, (1:2:3), DIDMA, 30 sec",40%
same,C=C% Conversion,"[1]; 0.05 wt %, (1:2:3), DIDMA, 60 sec",43%
same,C=C% Conversion,"[1]; 0.05 wt %, (1:2:3), NPG, 30 sec",40%
same,C=C% Conversion,"[1]; 0.05 wt %, (1:2:5), DIDMA, 30 sec",40%
same,C=C% Conversion,"[1]; 0.05 wt %, (1:2:60), DIDMA, 30 sec",43%
same,C=C% Conversion,"[1]; 0.10 wt %, (1:2:0), DIDMA, 30 sec",18%
same,C=C% Conversion,"[1]; 0.10 wt %, (1:2:3), DIDMA, 30 sec",45%
same,C=C% Conversion,"[1]; 0.10 wt %, (1:2:3), DIDMA, 60 sec",47%
same,C=C% Conversion,"[1]; 0.15 wt %, (1:2:0), DIDMA, 30 sec",19%
same,C=C% Conversion,"[1]; 0.15 wt %, (1:2:3), DIDMA, 30 sec",50%
same,C=C% Conversion,"[1]; 0.15 wt %, (1:2:3), DIDMA, 60 sec",54%
same,C=C% Conversion,"[1]; 0.20 wt %, (1:2:3), DIDMA, 30 sec",51%
same,C=C% Conversion,"[1]; 0.25 wt %, (1:2:3), DIDMA, 30 sec",50%
same,C=C% Conversion,"[2]; 0.05 wt %, (1:0:60), 30 sec",30%
same,C=C% Conversion,"[2]; 0.05 wt %, (1:2:3), 30 sec",49%
same,C=C% Conversion,"[2]; 0.10 wt %, (1:2:3), 30 sec",56%
same,C=C% Conversion,"[2]; 0.10 wt %, (1:2:3), 60 sec",56%
same,C=C% Conversion,"[2]; 0.15 wt %, (1:3:3), 30 sec",58%
